Test results as given in patent EP0176049A2, “Aminoalkylnaphtalene derivatives having pharmacological activities” (priority 1984, dated 1986).

Columns and labels:
[1] = target: enzymes responsible for the enkephalins hydrolysis; assay: inhibition of the enzymes responsible for the enkephalins hydrolysis; assay type: biochemical
mouse [2] = assay: acute toxicity in the mouse; assay type: in vivo; details: i.p. administration
[3] = acute toxicity in the mouse; assay type: in vivo; details: in vivo, ip, i.p. administration
mouse [4] = assay: hot plate test (analgesic activity); assay type: in vivo
rat = assay: paw oedema by carrageenin according to Randall-Selitto (antiinflammatory activity); assay type: in vivo; details: ip

Compound: 2-(3-dimethylamino-l-t-butyl-l-hydroxypropyl)-6-methoxy- naphtalene [Example 3]
- IC50 [1]: 5 mM
- LD50 (mouse [2]): 120,96 ± 5,32. mg/kg i.p.

Compound: CCC(O)(c1ccc2cc(OC)ccc2c1)C(C)CN(C)C (stereo not drawn) [Example 1]
- IC50 [1]: 4 mM
- LD50 [3]: 65.8 mg/kg
- ED50 (mouse [4]; Mus musculus, route and species not restated for this value): 13.5 mg/kg
- kind of activity in the hot plate test (reversibility by naloxone) (mouse [4]; naloxone antagonism): partially reversible by naloxone

Compound: CCC(O)(c1ccc2cc(O)ccc2c1)C(C)CN(C)C (stereo not drawn) [Example 2]
- ED50 (rat): 1.25 mg/kg
- LD50 [3]: 56.2 mg/kg
- ED50 (mouse [4]; ip, mouse, analgesic activity): 5.6 ± 1.51 mg/kg
